# Where “and” joins values, the source holds several entries; their conditions need not be identical. Identical values can stand only once. Like-named read-outs stand apart in the source and are kept apart here.
# Experiments:
# C57BL/6J mice = assay: PhenoMaster respiration and metabolic analysis; format: in vivo, mouse; set-up: energy expenditure (Fig. S8b) / total food consumption (Fig. S8c) / total drink consumption (Fig. S8d) / oxygen consumption (stats entry 2j): unit not given here
# Description: For respiration and metabolic analysis, PhenoMaster (TSE Systems, Germany) was employed. All C57BL/6J mice aged 8–10 weeks underwent initial chamber habituation and gas calibration on day 0. Starting on day 3, the mice were administered KDS12025 dissolved in water at dosages of 0.1, 1, and 10 mg/kg/day (ad libitum drinking water). Respiratory and metabolic measurements, including oxygen consumption, carbon dioxide production, and the respiratory exchange ratio (RER, calculated as VCO2/VO2), as well as food and drink intake and energy expenditure, were conducted from day 4. The recording ends on day 8 with data collection.
# [1] = target: T1, delta (DOP) (h) (agonist radioligand) (Homo sapiens, UniProt P41143); assay: SafetyScreen87 panel; details: 1.0E-06 M; mean; read-out: % Inhibition of Control Specific Binding (1st, 2nd, Mean)
# T1 construct: purchased DiscoverX KINOMEscan scanEDGE; Eurofins Cerep SafetyScreen87
# Description: (§1) The possibility of KDS12025 on kinase off-target, the KINOMEscan panel of scanEDGE assay was conducted in DiscoverX (CA, USA) using a site-directed competition binding with the test compounds. The assay results are given in Supplementary Table 4 and experimental information is available on the DiscoverX web page (www.discoverx.com). Moreover, the Delta SafetyScreen87 panel assay was conducted in Eurofins Discovery (Cerep, France). The assay results are given in Supplementary Table 5 and experimental information is available on the DiscoverX web page (https://www.eurofinsdiscoveryservices.com).
# [2] = target: T2, PAF (h) (agonist radioligand) (Homo sapiens, UniProt P25105); assay: SafetyScreen87 panel; details: 1.0E-06 M; read-out: % Inhibition of Control Specific Binding (1st, 2nd, Mean)
# T2 construct: purchased DiscoverX KINOMEscan scanEDGE; Eurofins Cerep SafetyScreen87
# Description: as §1
# [3] = target: T3, CCR1 (h) (agonist radioligand) (Homo sapiens, UniProt P32246); assay: SafetyScreen87 panel
# T3 construct: purchased DiscoverX KINOMEscan scanEDGE; Eurofins Cerep SafetyScreen87
# Description: as §1
# [4] = target: T4, 5-HT2A (h) (agonist radioligand) (Homo sapiens, UniProt P28223); assay: SafetyScreen87 panel; details: 1.0E-06 M; mean; read-out: % Inhibition of Control Specific Binding (1st, 2nd, Mean)
# T4 construct: purchased DiscoverX KINOMEscan scanEDGE; Eurofins Cerep SafetyScreen87
# Description: as §1
# [5] = test system: Ca2+ channel (L, dihydropyridine site) (antagonist radioligand); assay: SafetyScreen87 panel; details: 1.0E-06 M, read-out: % Inhibition of Control Specific Binding (1st, 2nd, Mean)
# Description: as §1
# [6] = target: T5, D2L (h) (antagonist radioligand) (Homo sapiens, UniProt P14416); assay: SafetyScreen87 panel; details: 1.0E-06 M, read-out: % Inhibition of Control Specific Binding (1st, 2nd, Mean)
# T5 construct: purchased DiscoverX KINOMEscan scanEDGE; Eurofins Cerep SafetyScreen87
# Description: as §1
# [7] = target: T6, GR (h) (agonist radioligand) (Homo sapiens, UniProt P04150); assay: SafetyScreen87 panel; details: 1.0E-06 M; mean; read-out: % Inhibition of Control Specific Binding (1st, 2nd, Mean)
# T6 construct: purchased DiscoverX KINOMEscan scanEDGE; Eurofins Cerep SafetyScreen87
# Description: as §1
# [8] = target: T7, N neuronal alpha 4beta 2 (h) (agonist radioligand) (Homo sapiens, UniProt P17787+P43681); assay: SafetyScreen87 panel; details: 1.0E-06 M; mean; read-out: % Inhibition of Control Specific Binding (1st, 2nd, Mean)
# T7 construct: purchased DiscoverX KINOMEscan scanEDGE; Eurofins Cerep SafetyScreen87
# Description: as §1
# [9] = target: T8, 5-HT1B (h) (antagonist radioligand) (Homo sapiens, UniProt P28222); assay: SafetyScreen87 panel; details: 1.0E-06 M; mean; read-out: % Inhibition of Control Specific Binding (1st, 2nd, Mean)
# T8 construct: purchased DiscoverX KINOMEscan scanEDGE; Eurofins Cerep SafetyScreen87
# Description: as §1
# [10] = target: T9, Y1 (h) (agonist radioligand) (Homo sapiens, UniProt P25929); assay: SafetyScreen87 panel; details: read-out: % Inhibition of Control Specific Binding (1st, 2nd, Mean); 1.0E-06 M
# T9 construct: purchased DiscoverX KINOMEscan scanEDGE; Eurofins Cerep SafetyScreen87
# Description: as §1
# [11] = target: T10, dopamine transporter (h) (antagonist radioligand) (Homo sapiens, UniProt Q01959); assay: SafetyScreen87 panel; details: 1.0E-06 M, read-out: % Inhibition of Control Specific Binding (1st, 2nd, Mean)
# T10 construct: Eurofins Discovery (Cerep, France) SafetyScreen87 panel
# Description: as §1
# [12] = target: T11, MC1 (agonist radioligand) (Mus musculus, UniProt Q01727); assay: SafetyScreen87 panel; details: 1.0E-06 M; mean; read-out: % Inhibition of Control Specific Binding (1st, 2nd, Mean)
# T11 construct: purchased DiscoverX KINOMEscan scanEDGE; Eurofins Cerep SafetyScreen87
# Description: as §1
# [13] = target: T12, A2A (h) (agonist radioligand) (Homo sapiens, UniProt P29274); assay: SafetyScreen87 panel; details: 1.0E-06 M, read-out: % Inhibition of Control Specific Binding (1st, 2nd, Mean)
# T12 construct: purchased DiscoverX KINOMEscan scanEDGE; Eurofins Cerep SafetyScreen87
# Description: as §1
# [14] = target: T13, adenosine transporter (antagonist radioligand) (Cavia porcellus, UniProt H0V4R7); assay: SafetyScreen87 panel
# T13 construct: Eurofins Discovery (Cerep, France) SafetyScreen87 panel
# Description: as §1
# [15] = target: T14, CCK1 (CCKA) (h) (agonist radioligand) (Homo sapiens, UniProt P32238); assay: SafetyScreen87 panel; details: 1.0E-06 M; read-out: % Inhibition of Control Specific Binding (1st, 2nd, Mean)
# T14 construct: purchased DiscoverX KINOMEscan scanEDGE; Eurofins Cerep SafetyScreen87
# Description: as §1
# [16] = test system: BZD (central) (agonist radioligand); assay: SafetyScreen87 panel; details: 1.0E-06 M, read-out: % Inhibition of Control Specific Binding (1st, 2nd, Mean)
# Description: as §1
# [17] = target: T15, alpha 1B (h) (antagonist radioligand) (Homo sapiens, UniProt P35368); assay: SafetyScreen87 panel; details: 1.0E-06 M, read-out: % Inhibition of Control Specific Binding (1st, 2nd, Mean)
# T15 construct: purchased DiscoverX KINOMEscan scanEDGE; Eurofins Cerep SafetyScreen87
# Description: as §1
# [18] = 1.0E-06 M; read-out: % Inhibition of Control Specific Binding (1st, 2nd, Mean)
# [19] = read-out: % Inhibition of Control Specific Binding (1st, 2nd, Mean); 1.0E-06 M
# T12 sequence (P29274 whole entry): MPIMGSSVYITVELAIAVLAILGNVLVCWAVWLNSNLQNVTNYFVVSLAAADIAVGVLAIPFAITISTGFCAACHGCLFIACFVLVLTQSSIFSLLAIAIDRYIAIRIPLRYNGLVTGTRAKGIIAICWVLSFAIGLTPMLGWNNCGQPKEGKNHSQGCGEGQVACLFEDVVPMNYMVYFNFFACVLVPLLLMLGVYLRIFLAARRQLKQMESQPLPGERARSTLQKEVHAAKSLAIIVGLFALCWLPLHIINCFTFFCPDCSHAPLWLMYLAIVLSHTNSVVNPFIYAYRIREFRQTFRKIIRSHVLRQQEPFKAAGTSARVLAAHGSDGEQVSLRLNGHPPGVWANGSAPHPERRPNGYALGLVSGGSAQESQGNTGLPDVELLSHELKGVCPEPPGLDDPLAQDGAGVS
# T10 sequence (Q01959 whole entry): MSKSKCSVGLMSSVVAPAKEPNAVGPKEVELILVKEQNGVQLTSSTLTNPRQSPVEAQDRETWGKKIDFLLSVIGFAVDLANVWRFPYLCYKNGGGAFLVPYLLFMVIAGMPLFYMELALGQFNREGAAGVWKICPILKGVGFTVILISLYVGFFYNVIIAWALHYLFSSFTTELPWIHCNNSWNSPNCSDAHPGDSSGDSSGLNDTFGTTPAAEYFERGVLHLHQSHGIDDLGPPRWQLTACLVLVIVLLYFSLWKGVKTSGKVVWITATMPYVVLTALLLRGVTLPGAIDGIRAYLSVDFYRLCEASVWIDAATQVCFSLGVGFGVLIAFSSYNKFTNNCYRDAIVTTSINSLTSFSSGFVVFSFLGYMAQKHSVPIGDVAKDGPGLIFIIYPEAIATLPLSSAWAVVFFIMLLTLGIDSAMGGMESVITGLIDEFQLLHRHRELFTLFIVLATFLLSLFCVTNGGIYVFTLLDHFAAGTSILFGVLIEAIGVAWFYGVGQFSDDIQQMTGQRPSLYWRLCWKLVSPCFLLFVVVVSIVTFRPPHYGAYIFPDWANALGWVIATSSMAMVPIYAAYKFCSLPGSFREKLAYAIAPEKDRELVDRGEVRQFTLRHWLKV
# T15 sequence (P35368 whole entry): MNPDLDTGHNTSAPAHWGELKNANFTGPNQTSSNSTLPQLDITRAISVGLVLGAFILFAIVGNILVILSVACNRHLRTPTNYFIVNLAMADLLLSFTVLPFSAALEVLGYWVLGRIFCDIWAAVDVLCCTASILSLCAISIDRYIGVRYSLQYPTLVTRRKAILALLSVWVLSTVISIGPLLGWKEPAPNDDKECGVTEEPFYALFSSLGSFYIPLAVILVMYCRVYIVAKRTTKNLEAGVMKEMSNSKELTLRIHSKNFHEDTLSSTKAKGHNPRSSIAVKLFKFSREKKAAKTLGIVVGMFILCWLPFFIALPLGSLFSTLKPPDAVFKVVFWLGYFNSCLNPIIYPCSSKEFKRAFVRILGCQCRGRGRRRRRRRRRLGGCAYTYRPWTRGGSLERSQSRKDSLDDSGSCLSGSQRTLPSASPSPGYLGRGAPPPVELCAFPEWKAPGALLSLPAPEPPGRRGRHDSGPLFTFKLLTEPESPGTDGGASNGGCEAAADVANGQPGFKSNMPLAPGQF
# T5 sequence (P14416 whole entry): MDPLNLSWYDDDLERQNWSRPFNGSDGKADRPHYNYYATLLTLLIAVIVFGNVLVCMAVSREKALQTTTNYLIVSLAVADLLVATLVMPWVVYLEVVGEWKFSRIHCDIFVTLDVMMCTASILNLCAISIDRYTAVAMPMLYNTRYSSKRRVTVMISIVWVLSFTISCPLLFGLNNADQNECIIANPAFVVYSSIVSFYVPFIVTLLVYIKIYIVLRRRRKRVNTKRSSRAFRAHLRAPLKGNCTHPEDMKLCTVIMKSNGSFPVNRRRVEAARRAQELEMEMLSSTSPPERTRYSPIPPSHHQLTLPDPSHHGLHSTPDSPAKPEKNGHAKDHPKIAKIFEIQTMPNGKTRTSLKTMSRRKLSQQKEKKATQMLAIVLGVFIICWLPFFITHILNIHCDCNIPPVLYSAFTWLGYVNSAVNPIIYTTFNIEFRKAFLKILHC
# T13 sequence (H0V4R7 1-461): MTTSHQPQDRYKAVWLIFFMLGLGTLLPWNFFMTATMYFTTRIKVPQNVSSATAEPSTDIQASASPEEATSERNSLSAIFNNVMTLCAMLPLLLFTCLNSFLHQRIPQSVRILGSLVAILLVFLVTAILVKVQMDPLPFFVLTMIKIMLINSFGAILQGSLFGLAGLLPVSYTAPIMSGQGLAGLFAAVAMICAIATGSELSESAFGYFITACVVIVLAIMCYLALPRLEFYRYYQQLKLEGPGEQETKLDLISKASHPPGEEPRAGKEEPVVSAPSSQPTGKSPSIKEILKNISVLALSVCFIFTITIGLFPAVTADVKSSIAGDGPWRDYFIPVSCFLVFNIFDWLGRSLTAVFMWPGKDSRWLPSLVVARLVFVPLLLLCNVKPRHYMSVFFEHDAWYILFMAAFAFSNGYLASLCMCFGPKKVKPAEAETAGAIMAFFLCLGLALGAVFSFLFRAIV
# T3 sequence (P32246 whole entry): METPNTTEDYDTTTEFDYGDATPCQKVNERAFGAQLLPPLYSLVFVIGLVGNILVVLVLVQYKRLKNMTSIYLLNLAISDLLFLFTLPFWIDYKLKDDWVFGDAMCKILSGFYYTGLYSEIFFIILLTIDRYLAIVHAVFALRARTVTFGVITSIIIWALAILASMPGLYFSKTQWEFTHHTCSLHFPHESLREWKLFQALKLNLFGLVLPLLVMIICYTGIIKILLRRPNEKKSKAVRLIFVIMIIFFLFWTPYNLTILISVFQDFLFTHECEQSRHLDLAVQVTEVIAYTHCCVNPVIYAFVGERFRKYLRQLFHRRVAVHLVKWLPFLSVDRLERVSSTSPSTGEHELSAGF
# T2 sequence (P25105 whole entry): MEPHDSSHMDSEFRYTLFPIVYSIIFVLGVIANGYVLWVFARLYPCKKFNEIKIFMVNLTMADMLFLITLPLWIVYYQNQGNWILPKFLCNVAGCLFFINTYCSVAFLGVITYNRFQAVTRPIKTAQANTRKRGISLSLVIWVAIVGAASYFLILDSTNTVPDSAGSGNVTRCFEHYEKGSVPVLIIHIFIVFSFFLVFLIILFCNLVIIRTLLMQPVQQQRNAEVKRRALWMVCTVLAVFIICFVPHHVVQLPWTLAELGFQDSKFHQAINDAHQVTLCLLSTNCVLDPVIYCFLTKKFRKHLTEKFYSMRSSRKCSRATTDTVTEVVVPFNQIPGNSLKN
# T6 sequence (P04150 whole entry): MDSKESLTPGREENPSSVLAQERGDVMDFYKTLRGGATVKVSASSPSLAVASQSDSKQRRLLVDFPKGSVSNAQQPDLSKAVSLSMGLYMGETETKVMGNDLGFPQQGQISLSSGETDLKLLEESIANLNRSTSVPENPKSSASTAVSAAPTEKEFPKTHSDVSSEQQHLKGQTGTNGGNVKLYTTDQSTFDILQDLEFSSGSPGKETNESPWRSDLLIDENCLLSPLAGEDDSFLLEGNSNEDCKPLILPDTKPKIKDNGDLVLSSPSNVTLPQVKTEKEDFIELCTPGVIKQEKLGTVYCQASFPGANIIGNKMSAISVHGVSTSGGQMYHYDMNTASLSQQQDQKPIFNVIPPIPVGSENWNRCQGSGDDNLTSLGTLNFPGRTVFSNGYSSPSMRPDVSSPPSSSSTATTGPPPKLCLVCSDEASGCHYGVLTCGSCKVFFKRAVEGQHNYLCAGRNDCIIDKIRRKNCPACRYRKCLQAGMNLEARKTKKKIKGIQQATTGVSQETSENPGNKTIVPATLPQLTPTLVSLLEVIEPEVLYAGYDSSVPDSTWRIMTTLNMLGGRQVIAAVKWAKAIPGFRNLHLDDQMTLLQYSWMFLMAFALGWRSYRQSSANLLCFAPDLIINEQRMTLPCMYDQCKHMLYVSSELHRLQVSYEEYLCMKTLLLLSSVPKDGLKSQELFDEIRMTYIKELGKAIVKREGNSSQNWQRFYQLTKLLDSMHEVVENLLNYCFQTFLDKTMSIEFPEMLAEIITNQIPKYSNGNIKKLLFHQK
# T14 sequence (P32238 whole entry): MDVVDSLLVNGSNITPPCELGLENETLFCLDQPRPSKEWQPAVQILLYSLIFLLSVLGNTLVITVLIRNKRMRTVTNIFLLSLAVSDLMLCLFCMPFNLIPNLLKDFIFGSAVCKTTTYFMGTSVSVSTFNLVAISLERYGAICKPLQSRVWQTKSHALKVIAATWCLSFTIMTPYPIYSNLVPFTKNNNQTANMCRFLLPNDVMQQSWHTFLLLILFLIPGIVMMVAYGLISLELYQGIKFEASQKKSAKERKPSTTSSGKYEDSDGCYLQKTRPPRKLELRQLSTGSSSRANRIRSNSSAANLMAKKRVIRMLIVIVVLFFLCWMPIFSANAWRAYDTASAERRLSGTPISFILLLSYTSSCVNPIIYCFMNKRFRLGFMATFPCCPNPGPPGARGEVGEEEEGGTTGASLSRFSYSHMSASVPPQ
# T9 sequence (P25929 whole entry): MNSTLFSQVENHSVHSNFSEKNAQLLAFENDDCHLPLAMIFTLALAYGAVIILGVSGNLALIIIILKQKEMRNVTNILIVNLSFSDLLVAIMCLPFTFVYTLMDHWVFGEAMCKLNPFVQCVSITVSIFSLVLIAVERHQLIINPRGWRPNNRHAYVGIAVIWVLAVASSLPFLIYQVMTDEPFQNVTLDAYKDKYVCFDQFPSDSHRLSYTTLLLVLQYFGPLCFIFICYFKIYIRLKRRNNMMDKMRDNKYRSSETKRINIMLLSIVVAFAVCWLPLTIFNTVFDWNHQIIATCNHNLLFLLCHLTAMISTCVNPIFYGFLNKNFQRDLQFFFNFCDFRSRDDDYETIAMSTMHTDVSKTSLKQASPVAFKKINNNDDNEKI
smiles,measurement,setting,value
"CNc1ccc(NCCc2ccccc2OC)cc1.Cl [KDS12025, N^1-(2-methoxyphenethyl)-N^4-methylbenzene-1,4-diamine hydrochloride salt]",carbon dioxide production (stats entry 2k),"C57BL/6J mice; 0.1mpk, dark",3345
same,energy expenditure (Fig. S8b),"C57BL/6J mice; 0.1mpk, dark",22.37±1.215
same,oxygen consumption (stats entry 2j),"C57BL/6J mice; 0.1mpk, dark",4228
same,respiratory exchange ratio (stats entry 2l),"C57BL/6J mice; 0.1mpk, dark",0.849
same,total drink consumption (Fig. S8d),"C57BL/6J mice; 0.1mpk, dark",0.1272±0.009
same,total food consumption (Fig. S8c),"C57BL/6J mice; 0.1mpk, dark",0.1543±0.018
same,carbon dioxide production (stats entry 2k),"C57BL/6J mice; 0.1mpk, full day",3292
same,energy expenditure (Fig. S8b),"C57BL/6J mice; 0.1mpk, full day",22.21±1.751
same,oxygen consumption (stats entry 2j),"C57BL/6J mice; 0.1mpk, full day",4161
same,respiratory exchange ratio (stats entry 2l),"C57BL/6J mice; 0.1mpk, full day",0.857
same,total drink consumption (Fig. S8d),"C57BL/6J mice; 0.1mpk, full day",0.108±0.005
same,total food consumption (Fig. S8c),"C57BL/6J mice; 0.1mpk, full day",0.126±0.0123
same,carbon dioxide production (stats entry 2k),"C57BL/6J mice; 0.1mpk, light",3065
same,oxygen consumption (stats entry 2j),"C57BL/6J mice; 0.1mpk, light",3923
same,respiratory exchange ratio (stats entry 2l),"C57BL/6J mice; 0.1mpk, light",0.833
same,carbon dioxide production (stats entry 2k),"C57BL/6J mice; 1mpk, dark",3167
same,energy expenditure (Fig. S8b),"C57BL/6J mice; 1mpk, dark",21.29±0.7258
same,oxygen consumption (stats entry 2j),"C57BL/6J mice; 1mpk, dark",4063
same,respiratory exchange ratio (stats entry 2l),"C57BL/6J mice; 1mpk, dark",0.891
same,total drink consumption (Fig. S8d),"C57BL/6J mice; 1mpk, dark",0.1220±0.0208
same,total food consumption (Fig. S8c),"C57BL/6J mice; 1mpk, dark",0.1761±0.0164
same,carbon dioxide production (stats entry 2k),"C57BL/6J mice; 1mpk, full day",3075
same,energy expenditure (Fig. S8b),"C57BL/6J mice; 1mpk, full day",21.26±0.07088
same,oxygen consumption (stats entry 2j),"C57BL/6J mice; 1mpk, full day",3871
same,respiratory exchange ratio (stats entry 2l),"C57BL/6J mice; 1mpk, full day",0.883
same,total drink consumption (Fig. S8d),"C57BL/6J mice; 1mpk, full day",0.0902±0.0248
same,total food consumption (Fig. S8c),"C57BL/6J mice; 1mpk, full day",0.166±0.03508
same,carbon dioxide production (stats entry 2k),"C57BL/6J mice; 1mpk, light",2916
same,energy expenditure (Fig. S8b),"C57BL/6J mice; 1mpk, light",19.95±0.3562
same,oxygen consumption (stats entry 2j),"C57BL/6J mice; 1mpk, light",3584
same,respiratory exchange ratio (stats entry 2l),"C57BL/6J mice; 1mpk, light",0.860
same,total drink consumption (Fig. S8d),"C57BL/6J mice; 1mpk, light",0.0790±0.0149
same,total food consumption (Fig. S8c),"C57BL/6J mice; 1mpk, light",0.1032±0.009
same,carbon dioxide production (stats entry 2k),"C57BL/6J mice; 10mpk, dark",3344
same,energy expenditure (Fig. S8b),"C57BL/6J mice; 10mpk, dark",20.73±0.9735
same,oxygen consumption (stats entry 2j),"C57BL/6J mice; 10mpk, dark",4216
same,respiratory exchange ratio (stats entry 2l),"C57BL/6J mice; 10mpk, dark",0.877
same,total drink consumption (Fig. S8d),"C57BL/6J mice; 10mpk, dark",0.1041±0.0394
same,total food consumption (Fig. S8c),"C57BL/6J mice; 10mpk, dark",0.1572±0.01881
same,carbon dioxide production (stats entry 2k),"C57BL/6J mice; 10mpk, full day",3120
same,energy expenditure (Fig. S8b),"C57BL/6J mice; 10mpk, full day",19.14±0.6082
same,oxygen consumption (stats entry 2j),"C57BL/6J mice; 10mpk, full day",3593
same,respiratory exchange ratio (stats entry 2l),"C57BL/6J mice; 10mpk, full day",0.857
same,total drink consumption (Fig. S8d),"C57BL/6J mice; 10mpk, full day",0.0776±0.01206
same,total food consumption (Fig. S8c),"C57BL/6J mice; 10mpk, full day",0.1288±0.0108
same,carbon dioxide production (stats entry 2k),"C57BL/6J mice; 10mpk, light",2900
same,energy expenditure (Fig. S8b),"C57BL/6J mice; 10mpk, light",18.91±1.057
same,oxygen consumption (stats entry 2j),"C57BL/6J mice; 10mpk, light",3753
same,respiratory exchange ratio (stats entry 2l),"C57BL/6J mice; 10mpk, light",0.831
same,total drink consumption (Fig. S8d),"C57BL/6J mice; 10mpk, light",0.05856±0.0075
same,total food consumption (Fig. S8c),"C57BL/6J mice; 10mpk, light",0.09464±0.0095
same,activity,[1],79.7%
same,activity,[2],106%
same,activity,[3]; [18],90.4%
same,activity,[3]; [19],88.2%
same,activity,[4],81.8%
same,activity,[5]; mean,129%
same,activity,[5],138% and 121%
same,activity,[6]; mean,84%
same,activity,[6],74.8% and 93.2%
same,activity,[7],104%
same,activity,[8],98.4%
same,activity,[9],90.8%
same,activity,[10],104%
same,activity,[11]; mean,107%
same,activity,[11],102% and 111%
same,activity,[12],109%
same,activity,[13]; mean,90.7%
same,activity,[13],90.3% and 91.2%
same,activity,[14]; [18],101%
same,activity,[14]; [19],98.6%
same,activity,[15],104%
same,activity,[16]; mean,99.5%
same,activity,[16],102% and 96.6%
same,activity,[17]; mean,65.4%
same,activity,[17],61.4% and 69.4%
